{
  "source": "patent US8809001B2",
  "about": "“High throughput assays for inhibitors and activators of PAQR receptors” (University of Florida Research Foundation, Inc., priority 2007, dated 2014)",
  "target": "T1, mPRβ (Homo sapiens, UniProt Q8TEZ7)",
  "T1 construct": "expressed in transfected cells; host or cells: Saccharomyces cerevisiae BY4742, GAL1-driven pYES260 plasmid",
  "T1 sequence (Q8TEZ7 1-354)": "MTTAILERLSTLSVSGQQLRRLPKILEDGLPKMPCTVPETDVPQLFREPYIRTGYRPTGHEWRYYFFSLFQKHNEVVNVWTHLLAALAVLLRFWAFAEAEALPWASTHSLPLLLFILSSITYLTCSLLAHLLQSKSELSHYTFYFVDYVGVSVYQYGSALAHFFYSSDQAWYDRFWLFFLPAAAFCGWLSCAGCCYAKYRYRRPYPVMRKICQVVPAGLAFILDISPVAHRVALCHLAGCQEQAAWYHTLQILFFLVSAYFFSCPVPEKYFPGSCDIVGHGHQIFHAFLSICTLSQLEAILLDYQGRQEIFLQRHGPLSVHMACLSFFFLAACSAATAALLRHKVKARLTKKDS",
  "assay": "FET3-lacZ reporter repression in yeast expressing mPRβ",
  "type": "cell-based",
  "settings": "Table 3, iron deficient LIM, 0.05% galactose",
  "description": "Plasmids and primers. Human PAQRs were cloned into various vectors by PCR from commercially/publically available cDNAs. PAQRs were cloned into the pYES260 (Melcher, 2000), pRS316 (Liu et al., 1992) or pGREG536 (Jansen et al., 2005) expression vectors using gap repair. The pJK90 plasmid containing a Dual Topology Reporter (DTR)-tagged OST4 gene driven by the constitutive TPI1 promoter was kindly provided by Dr. Gunnar von Heijne (Stockholm University) (Kim et al., 2003). The OST4 open reading frame in pJK90 was replaced with the PAQR6 and mPRα open reading frames by gap repair. Primers for all cloning reactions are listed herein. Proteins expressed in pYES260 have an N-terminal 6×-histidine tag followed by a TEV protease cleavage site. Proteins expressed in pGREG536 have an N-terminal 7×-HA tag. Proteins expressed in the pRS316 vector are untagged. The pYES260, pRS316 and pGREG536 vectors allow for galactose-inducible expression via the GAL1 promoter. […] The FET3-lacZ plasmid was previously described (Kupchak et al., 2007). […]\nAssays and growth conditions. […] Cells were allowed to grow to mid-log phase at which time the activity of the FET3 gene was monitored using a FET3-lacZ promoter-reporter construct. lacZ activities are presented as a percentage of activity seen in untreated cells expressing the appropriate empty expression vector control. […]",
  "note": "“And” between values parts separate entries of the source, which are not always exact repeats. Equal values may be shown once.",
  "data": [
    {"smiles": "CC(=O)[C@H]1CC[C@H]2[C@@H]3CCC4=CC(=O)CC[C@]4(C)[C@H]3CC[C@]12C", "note": "[Progesterone, progesterone]", "values": [
      {"measurement": "EC50", "value": "1.6 nM and 1 to 3 nM"}
    ]}
  ]
}
